Data as given in BindingDB's records for PubMed 39140043 (Usona Institute).

Biological target: GTPase KRas (Homo sapiens, UniProt P01116)
Assay: Inhibition of GDP bound KRAS G12V mutant (unknown origin)

Sequence of GTPase KRas (P01116 whole entry G12V): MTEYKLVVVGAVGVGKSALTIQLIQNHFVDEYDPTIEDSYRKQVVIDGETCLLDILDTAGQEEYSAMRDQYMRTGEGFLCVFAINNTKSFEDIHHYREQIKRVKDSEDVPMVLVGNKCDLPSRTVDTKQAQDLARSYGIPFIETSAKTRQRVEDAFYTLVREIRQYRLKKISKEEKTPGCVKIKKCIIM

- IC50: 0.371 nM
Compound: C#Cc1c(F)ccc2cc(O)cc(-c3ncc4c(N(C)[C@H]5C[C@@H]5F)nc(OCC56CCCN5CC(=C)C6)nc4c3F)c12 (stereo partly specified)
